For test [1], the target named is T1, Tryptophan 2,3-dioxygenase (Homo sapiens, UniProt P48775). Kind of test: Inhibition of recombinant human TDO2 expressed in Escherichia coli BL21 (DE3) assessed as reduction in N-formylkynurenine formation using L-tryptophan as substrate incubated for 30 mins by methylene blue reagent based concurrent assay.
The target of test [2] is T2, Indoleamine 2,3-dioxygenase 1 (Homo sapiens, UniProt P14902). Kind of test: Inhibition of recombinant human IDO1 expressed in Escherichia coli EC538 assessed as reduction in N-formylkynurenine formation using L-tryptophan as substrate incubated for 30 mins by methylene blue reagent based concurrent assay.
In test [3] the target is T1, Tryptophan 2,3-dioxygenase. Nature of the test: Inhibition of recombinant human TDO2 expressed in Escherichia coli BL21 (DE3) assessed as reduction in N-formylkynurenine formation using L-tryptophan as substrate incubated for 30 mins by methylene blue reagent based assay.
In test [4] the target is T2, Indoleamine 2,3-dioxygenase 1. Nature of the test: Inhibition of recombinant human IDO1 expressed in Escherichia coli EC538 assessed as reduction in N-formylkynurenine formation using L-tryptophan as substrate incubated for 30 mins by methylene blue reagent based assay.
Test [5] addresses Tryptophan 2,3-dioxygenase (Rattus norvegicus, UniProt P21643). Kind of test: Inhibition of TDO2 in rat liver homogenate assessed as reduction in N-formylkynurenine formation using L-tryptophan as substrate incubated for 1 hr. The test is classed as tissue-based.

SMILES strings stand for the structures.

T2 sequence (P14902 whole entry): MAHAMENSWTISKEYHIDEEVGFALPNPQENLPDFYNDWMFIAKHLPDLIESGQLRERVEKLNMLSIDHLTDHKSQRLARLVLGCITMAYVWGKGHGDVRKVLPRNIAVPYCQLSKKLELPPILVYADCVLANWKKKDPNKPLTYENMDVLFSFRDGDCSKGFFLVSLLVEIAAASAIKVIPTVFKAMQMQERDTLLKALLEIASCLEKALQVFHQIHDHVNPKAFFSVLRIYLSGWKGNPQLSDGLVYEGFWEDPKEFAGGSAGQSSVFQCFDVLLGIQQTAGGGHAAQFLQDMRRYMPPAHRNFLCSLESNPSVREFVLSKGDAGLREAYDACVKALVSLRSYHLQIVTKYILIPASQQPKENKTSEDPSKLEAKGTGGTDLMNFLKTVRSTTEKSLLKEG
T1 sequence (P48775 whole entry): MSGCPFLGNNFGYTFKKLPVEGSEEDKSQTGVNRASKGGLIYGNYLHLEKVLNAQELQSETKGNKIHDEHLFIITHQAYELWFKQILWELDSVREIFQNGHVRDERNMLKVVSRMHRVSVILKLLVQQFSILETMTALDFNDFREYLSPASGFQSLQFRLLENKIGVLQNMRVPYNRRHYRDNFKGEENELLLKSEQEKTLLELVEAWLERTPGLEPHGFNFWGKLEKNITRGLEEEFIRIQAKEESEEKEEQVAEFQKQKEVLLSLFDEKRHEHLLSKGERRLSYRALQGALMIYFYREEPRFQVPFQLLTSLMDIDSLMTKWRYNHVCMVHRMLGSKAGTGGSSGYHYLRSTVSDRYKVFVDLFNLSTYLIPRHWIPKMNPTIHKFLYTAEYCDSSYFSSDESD
Chain of Tryptophan 2,3-dioxygenase (Rattus norvegicus, UniProt P21643) (P21643 whole entry): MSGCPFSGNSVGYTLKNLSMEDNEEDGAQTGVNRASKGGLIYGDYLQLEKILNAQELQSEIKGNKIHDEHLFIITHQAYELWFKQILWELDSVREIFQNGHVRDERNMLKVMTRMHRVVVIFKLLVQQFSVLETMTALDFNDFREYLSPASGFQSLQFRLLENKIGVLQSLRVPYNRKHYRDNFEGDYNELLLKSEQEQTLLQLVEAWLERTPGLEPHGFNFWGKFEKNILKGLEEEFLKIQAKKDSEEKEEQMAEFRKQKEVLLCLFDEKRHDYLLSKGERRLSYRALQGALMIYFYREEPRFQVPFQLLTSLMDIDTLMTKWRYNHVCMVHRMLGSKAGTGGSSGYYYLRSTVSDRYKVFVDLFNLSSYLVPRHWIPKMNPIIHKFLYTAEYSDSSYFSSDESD

`O=Cc1ccc(O)c2ncccc12`: the figures for the IC50 in test [1] and in test [2] were > 100 µM and 4.37 µM, respectively.
The matching figures for `CC1Oc2cc3c(-c4c(O)cc(O)c5c(O)c6c(cc45)OC(C)C(C)C6=O)c(O)cc(O)c3c(O)c2C(=O)C1C` (centres undefined): 48.6 µM and 44.1 µM.
In the case of `NS(=O)(=O)NCCNc1nonc1C(=NO)Nc1ccc(F)c(Br)c1` [EPACADOSTAT], the results for the IC50 in test [3] and in test [1] were 2.12 µM and 3.43 µM, respectively.
Consider `O=C1c2ccccc2C2=C3C(O)=NN=C3CCN12`, for which the IC50 in test [1] turned out to be 4.35 µM; in test [2], 1.72 µM.
The matching figures for `O=[N+]([O-])c1cc([N+](=O)[O-])c2cccnc2c1O`: 22.7 µM and 11.1 µM.
In the same order, the values of `CC1=C(O)C(=O)C=C2C1=CC=C1[C@@]2(C)CC[C@@]2(C)[C@@H]3C[C@](C)(C(=O)O)CC[C@]3(C)CC[C@]12C` [CELASTROL] are > 100 µM and 8.41 µM.
With `Fc1ccc2c(/C=C/c3cccnc3)c[nH]c2c1`, the IC50 amounted to 350 µM in test [4], 0.05 µM in test [5] and 478 µM in test [2].
As for `O=[N+]([O-])/C=C/c1cc2ccccc2[nH]1`, the results for the IC50 in test [1] and in test [2] were > 100 µM and 2.79 µM, respectively.
For `Oc1ccccc1-c1nc2c3ccccc3c3ccccc3c2[nH]1`, the IC50 in test [1] was determined as 12.3 µM; in test [2], 11.8 µM.
The matching figures for `COCCn1c2nc(=O)n(-c3ccccc3)c(=O)c-2nc2ccccc21`: 33.7 µM and 23.8 µM.
In the same order, the values of `Cc1cc(=O)n2c3c(c4c(cc13)c(CN(C)C)cc(=O)n4C)OC2` are 17.6 µM and 27 µM.
The matching figures for `O=S(=O)(/N=C/c1c(O)ccc2ccccc12)c1cccs1`: 11.3 µM and 1.39 µM.
For the compound `Nc1nonc1C(=NO)Nc1ccc(F)c(Cl)c1`, the figures for the IC50 in test [3] and in test [1] were 3.47 µM and 3.62 µM, respectively.
As for `O=[N+]([O-])c1cc(F)c2cccnc2c1O`, the results for the IC50 in test [1] and in test [2] were 30.2 µM and 14.6 µM, respectively.

One may read the IC50 as the midpoint of a concentration-inhibition curve.

(Values after ChEMBL document CHEMBL4811262, “Parallel discovery of selective and dual inhibitors of tryptophan dioxygenases IDO1 and TDO2 with a newly-modified enzymatic assay” (Bioorg Med Chem, 2021).)
